“Also recorded” adds a separate entry of the source. Like-named read-outs stand apart in the source and are kept apart here.
Assays:
[1] = Tail flick test, intra-gastric, intra-ileal and intra-colonic butorphanol; format: in vivo
Description: FIG. 13: Time-effect curves depicting antinociceptive effect of intra-gastric, intra-ileal and intra-colonic butorphanol in the tail flick test. The percent maximum possible effect (% MPE) is plotted versus time.
FIG. 14: Time-effect curves depicting antinociceptive effect of intra-gastric, intra-ileal and intra-colonic butorphanol in the tail flick test. The percent maximum possible effect (% MPE) is plotted versus time.

[2] = test system: vincristine induced painful neuropathy; test: Vincristine induced painful neuropathy, mechanical allodynia (von Frey filaments); format: in vivo, Wistar rats; conditions: vincristine neuropathic rats
Description: (§1) The aim of this study was to evaluate the effect of oral administration of butorphanol in rats with vincristine induced painful neuropathy. The primary measurements were made mechanical and thermal allodynia designed to detect effects of the treatment(s) on neuropathic pain.
(§2) Wistar rats weighing 250±20 g were maintained on standard laboratory diet and having free access to tap water ad lib were employed in the present study. They were housed in the animal house and were exposed to 12 hr cycle of light and dark. The experiments were conducted in a semi-sound proof laboratory. Care of the animals was in accordance with guidelines for experimentation on animals.
The vincristine model was adapted from Authier et al (1999). Rats were injected on five alternate days (day 4, 6, 8, 10 & 12) with vincristine (200 μg/kg i.p.) using an injection volume of 2 ml/kg. […]
(§3) Mechano-allodynia was assessed using von Frey filaments. […] Both hind paws were tested for allodynia and the average of the two was recorded as data. Results were expressed in grams and determined before and 30 and 60 min after the administration of the test drugs.
(§4) The anti-nociceptive effect was plotted assessed having time (relative to dosing time point) on the x-axis and percent maximum possible effect (% MPE) on the y-axis. The results were expressed as mean±standard error of means (S.E.M.). […]

[3] = test system: vincristine induced painful neuropathy; test: Vincristine induced painful neuropathy, cold allodynia (acetone drop test); format: in vivo, Wistar rats; conditions: vincristine neuropathic rats
Description: as §1, §2
The vincristine model was adapted from Authier et al (1999). Rats were injected on five alternate days (day 4, 6, 8, 10 & 12) with vincristine (200 μg/kg i.p.) using an injection volume of 2 ml/kg. Thus, the cumulative dose of vincristine was computed to be 1 mg/kg. Tests took place three days after the last injection and continued over the next three weeks. […]
For the assessment of cold allodynia, which was stable for 3 weeks, the rats were placed on a wire mesh covered with a plastic dome and were allowed to habituate until the exploratory behavior diminished. Cold allodynia was measured as the number of foot withdrawal responses after application of stimuli to the plantar surface of the paw. […] Acetone was applied two times (once every 5 min) on the left paw, and the number of reactions (shaking, tapping, or licking) was counted during 30 sec. […] The score was expressed as accumulated numbers of reactions over the trials and determined before and 30 and 60 min after administration of the test drugs. Each individual test was expressed as a percentage of maximum possible effect (% MPE): […]
MPE (%) at 30 min time point was employed as a quantitative measure of the analgesic effect of the test drugs.
as §4

[4] = test system: paclitaxel induced painful neuropathy; test: Paclitaxel induced painful neuropathy, mechanical allodynia (von Frey filaments); format: in vivo, Wistar rats; conditions: paclitaxel neuropathic rats
Description: The aim of this study was to evaluate the effect of oral administration of butorphanol in rats with paclitaxel induced painful neuropathy. The primary measurements were made mechanical and thermal allodynia designed to detect effects of the treatment(s) on neuropathic pain.
as §2
Rats were injected on five alternate days (day 4, 6, 8, 10 & 12) with paclitaxel (2 mg/kg i.p.) using an injection volume of 2 ml/kg. Thus, the cumulative dose of paclitaxel was computed to be 10 mg/kg. […]
as §3, §4

[5] = test system: opioid receptors; conditions: cited from earlier work
[6] = biological target: κ-opioid receptors (Homo sapiens, UniProt P41145); conditions: cited from earlier work
κ-opioid receptors, sequence (P41145 whole entry): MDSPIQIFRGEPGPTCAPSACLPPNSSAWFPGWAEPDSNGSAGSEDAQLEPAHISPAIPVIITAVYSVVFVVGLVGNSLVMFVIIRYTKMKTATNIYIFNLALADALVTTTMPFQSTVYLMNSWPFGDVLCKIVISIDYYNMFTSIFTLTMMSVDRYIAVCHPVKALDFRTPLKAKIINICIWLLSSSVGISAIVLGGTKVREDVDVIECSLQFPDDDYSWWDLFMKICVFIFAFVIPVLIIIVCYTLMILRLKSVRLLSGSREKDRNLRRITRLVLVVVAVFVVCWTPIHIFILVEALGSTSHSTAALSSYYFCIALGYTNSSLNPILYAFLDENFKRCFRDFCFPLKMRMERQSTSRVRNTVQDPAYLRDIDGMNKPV

[7] = cited from earlier work; for duration of analgesic effect (median time to requesting rescue analgesia): acute postsurgical pain
[8] = intranasal, single dose, cited from earlier work
[9] = cited from earlier work

Compound: Oc1ccc2c(c1)[C@@]13CCCC[C@@]1(O)[C@@H](C2)N(CC1CCC1)CC3 [butorphanol, (−)17-(Cyclobutylmethyl)morphinan-3,14-diol]
- antinociceptive effect, position of the % MPE time-effect curve ([1]; intra-colonic): Top curve
- antinociceptive effect, position of the % MPE time-effect curve ([1]; intra-gastric): bottom curve
- antinociceptive effect, position of the % MPE time-effect curve ([1]; intra-ileal): second from top curve
- mechanical withdrawal threshold ([2]; oral 1, 3, 10, 30 mg/kg, FIG. 15): dose dependent increase; also recorded: significant increase
- time of peak effect post-administration (mechanical allodynia) ([2]; oral): 30 min
- cold allodynia score ([3]; oral 1, 3, 10, 30 mg/kg, FIG. 16): dose dependent decrease
- cold allodynia withdrawal threshold in comparison to the control readings ([3]; oral): significant increase
- time of peak effect post-administration (cold allodynia) ([3]; oral): 30 min
- time of peak effect post-administration (mechanical allodynia) ([4]; oral): 30 min
- mechanical withdrawal threshold ([4]; p.o. 0.01, 0.03, 0.1, 0.3 mg/kg, FIG. 17): dose dependent increase; also recorded: significant increase
- activity at opioid receptors [5]: partial agonist
- activity at κ-opioid receptors [6]: pure agonist
- duration of analgesic effect (median time to requesting rescue analgesia) ([7]; 1 mg intranasal dose): less than 2 hours
- subjects requiring rescue analgesia during the first 6 hours of observation ([7]; 1 mg intranasal dose): about 90%
- duration of analgesic effect (median time to requesting rescue analgesia) ([7]; 2 mg intranasal dose): less than 2 hours
- subjects requiring rescue analgesia during the first 6 hours of observation ([7]; 2 mg intranasal dose): about 80%
- dizziness ([8]; 1 mg): 46%
- headache ([8]; 1 mg): 46%
- nausea ([8]; 1 mg): 38%
- oxygen desaturation ([8]; 1 mg): 3%
- vomiting ([8]; 1 mg): 17%
- dizziness ([8]; 2 mg): 58%
- headache ([8]; 2 mg): 29%
- nausea ([8]; 2 mg): 46%
- oxygen desaturation ([8]; 2 mg): 3%
- vomiting ([8]; 2 mg): 17%
- mean half-life ([9]; in vivo): about 5 hours
- oral bioavailability ([9]; widely reported): poor
